Laboratory results as given in US7357913B2, “Methods for detecting, prognosing, or monitoring a disorder by comparing relative flux rates of two or more biological molecules in vivo” (The Regents of the University of California, priority 2003, dated 2008).
Entries after “also recorded” stand apart in the source; their conditions may differ.

Key:
[1] = tested on: EMT7 mouse mammary carcinoma cells; test: Tumor cell proliferation in EMT7 tumor-bearing mice, Gem and HU; type: in vivo; details: female balb/C nu/nu mice, EMT7 tumors; Gem 125 mg/kg every other day, HU 500 mg/kg daily; 5 days
Experimental: Female balb/C nu/nu mice were implanted subcutaneously with approximately 106 EMT7 mouse mammary carcinoma cells in matrigel. Tumors were allowed to reach ca.1500 mm^3 in size. Mice were labeled with ^2H2O and treated with either 125mg/kg gemzar (gemcitabine or Gem) or 500 mg/kg hydroxyurea (HU). Gem was administered every other day; HU daily; and control saline daily. At the end of 5 days tumors were removed and cell proliferation was measured as described, supra.

[2] = tested on: bone marrow cells; test: Bone marrow cell proliferation (de novo DNA synthesis, 2H2O labeling), gemcitabine study; type: in vivo, mouse; details: male balb/C nu/nu mice with SW1573, increasing doses every other day, 5 days
Experimental: (§1) Male balb/C nu/nu mice were implanted subcutaneously with non-small cell lung carcinoma cells (SW1573) cells in matrigel. Mice were labeled with 2H2O and treated with increasing doses of gemcitabine (Gem), administered every other day (as shown in FIG. 9). After 5 days, tumor, colon and bone marrow were removed using techniques well known in the art, and as described, supra. Cell proliferation was measured as described, supra. […] De novo DNA synthesis from all three cell types was measured concurrently using the methods of the present invention. Briefly, heavy water (^2H2O) is administered to living organisms (8% ^2H2O in drinking water). DNA is isolated, hydrolyzed to free dNs, and deuterium incorporation into the deoxyribose (dR) moiety of purine and pyrimidine dNs is measured by gas chromatography/mass spectrometry (GC/MS) as described, supra.

[3] = tested on: non-small cell lung carcinoma cells (SW1573); test: Tumor cell proliferation (de novo DNA synthesis, 2H2O labeling) in SW1573 xenograft mice, gemcitabine; type: in vivo, human; details: male balb/C nu/nu mice, SW1573 s.c. in matrigel, increasing doses every other day, 5 days
Experimental: as §1

[4] = tested on: colonocytes; test: Colonocyte proliferation (de novo DNA synthesis, 2H2O labeling), gemcitabine study; type: in vivo, mouse; details: male balb/C nu/nu mice with SW1573; for colon cell (colonocyte) proliferation: increasing doses every other day, 5 days
Experimental: as §1

[5] = tested on: total liver cell; test: Total liver cell proliferation (DNA synthesis) after CCl4; type: in vivo, mouse
Experimental: SVJ mice were injected 2× weekly with 1.0 ml/kg or 0.25 mL/kg of CCl4 or vehicle for up to 4 weeks Cell proliferation was measured at 2, 7, 14, 21 and 28 days of ^2H2O administration and CCl4 treatment using the methods of the present invention as described, supra.

[6] = tested on: liver collagen; test: Liver collagen synthesis (2H into hydroxyproline) after CCl4; type: in vivo, mouse
Experimental: Liver collagen synthesis was measured concurrently (i.e., simultaneously) with de novo DNA synthesis in the same CCl4-treated SJV mice. Collagen was purified from 10 mg of fresh total liver homogenate as follows: using a Polytron homogenizer, collagen was isolated from soft tissue by homogenizing in 0.5 mL 100 mM NaOH. Under these conditions, collagen remains insoluble while most other proteins are readily dissolved. After centrifugation at 7,000 ×g for 10 minutes at 4° C., the supernatant was discarded. The pellet was washed briefly with 2 mL H2O and solubilized in reducing Laemmli sample buffer (Bio-Rad, Hercules, Calif.) after boiling for 3 minutes. The dissolved material was size-fractionated by SDS-PAGE. […]
Acetone precipitated total liver protein and PVDF-bound collagen were hydrolyzed by treating with 6 N HCl, 16 hours at 110° C. […] Hydroxyproline was analyzed on a DB225 GC column, starting temp 100° C. increasing 10° C./min to 220° C. with selected ion monitoring of m/z 352,353.
Hydroxyproline is a molecule of interest and is measured as OH-proline, the molecule being essentially unique to collagen. Because of this fact, total liver protein hydrolysate can be derivatized and the ^2H enrichment of hydroxyproline determined by GC/MS as described, supra. […]

[7] = human, in vivo, po
Experimental: (§2) The ^2H2O was administered orally. The initial priming dose was carried out in the General Clinical Research Center (GCRC) of SF General Hospital. Subjects received a total of 350-400 mL of ^2H2O in the GCRC, given as divided doses over the course of 18-21 hours (70 mL of 70% ^2H2O, given every 3-4 hours), to achieve about 1.0% enrichment in the body water pool. The ^2H2O was purchased from-Isotec, Inc. (Miamisburgh, Ohio) and dispensed in sterile containers. Subjects then took 50 mL of 70% ^2H2O three times a day for 5 days, then 35-50 mL twice-a-day for the remainder of the 8-10 week labeling protocol. This protocol achieves near-plateau body ^2H2O enrichments (1.5-2.0%, see below) within 5-7 days in most subjects and was well-tolerated. Subjects received the ^2H2O as individual aliquots (35-50 mL of 70% ^2H2O) in plastic vials, which were stored in the refrigerator.
^2H2O enrichments in body water were measured from plasma or urine. A 15-20 μL sample was reacted in an evacuated GC vial with calcium carbide to produce acetylene. The acetylene gas was then transferred with a syringe and injected into an evacuated GC vial containing 10% bromine in carbon tetrachloride and incubated at room temperature for 2 hours to produce tetrabromoethane. […] The tetrabromoethane, containing hydrogen atoms from body H2O, was then analyzed by GC/MS.

[8] = Food intake and body weight under 2H2O treatment in mice; type: in vivo, mouse; details: ca. 2% body water enrichment then 4% 2H2O drinking water, 21 days
Experimental: Mice were injected with ^2H2O (deuterated water) at a dose to achieve approximately 2% enrichment in the body water pool. The normal drinking water was then replaced with water enriched to 4% ^2H2O. ^2H2O treatment had no impact on food intake or body weight. Twenty-one days following the start of ^2H2O administration, mice were fasted for four hours, anesthetized with isoflurane and exsanguinated via heart puncture. When possible, urine was collected at the same time.

[9] = Body water 2H2O enrichment in rats; type: in vivo, rat; details: rats maintained on 4% 2H2O in drinking water after i.p. priming bolus
Experimental: ^2H2O labeling protocols in rodents consisted of an initial intraperitoneal priming bolus to 2.0-2.5% body water enrichment. The priming dose of ^2H2O (100%) was given to the rats (e.g., for a 225 g rat, 2% of 135 ml, or 2.7 ml, given in divided doses 1 hour apart) based on estimated 60% body weight as water, followed by administration of 4% ^2H2O in the drinking water. The 4% enrichment of ^2H2O in drinking water was chosen as a convenient dose that produces sufficient enrichments in biosynthetic products of interest and has no known toxicities. ^2H2O (70% and 100%) was purchased commercially from Cambridge Isotopes (Andover, Mass.). Drinking was ad-libitum. Rats were sacrificed by CO2 asphyxiation.
Body water ^2H2O enrichments were measured serially. The steady state body ^2H2O enrichments attained in rats maintained on 4% ^2H2O in drinking water were approximately 3.0% and were stable over time in individual animals.

[10] = Tolerability of oral 2H2O labeling protocol in human subjects; type: in vivo; details: 8-10 week labeling protocol
Experimental: as §2

[11] = tested on: adipose tissue; test: Adipose tissue dynamics (TG synthesis, de novo lipogenesis, adipocyte proliferation) in leptin treated ob/ob mice; type: in vivo, mouse
Experimental: Four week old, female, C57/b16j mice (Jackson Labs Bar Harbor, […].) were divided into four groups: C57/b16j^+/? controls (con), ad libitum fed C57/b16j^lep-/lep-(ob/ob), leptin treated ob/ob (ob-lep) and food restricted ob/ob (ob-r). All mice were housed individually in hanging wire cages and given free access to water. The light cycle was on from noon to midnight and mean temperature was 73° F. Diets were from a purified formula with 1 g “dustless” pellets used for the ad lib fed animals and 45 mg for the food restricted ob/ob mice (Bio Serv, Frenchtown, N.J.). Mice were given 3 days to acclimate to the environment, during which time some weight loss was observed. After the acclimation period, food restriction or leptin treatment was begun and food intake and body weights were measured periodically. […]
The percent of TG newly synthesized during the labeling period was calculated based on the precursor-product relationship, as described supra, using body water enrichment to estimate the maximal or asymptotic enrichment in TG-glycerol. The relationship between body water and the maximal TG-glycerol enrichment has been determined through combinatorial analysis (mass isotopomer distribution analysis MIDA) and by measurement of 100% replaced TG pools after long-term ^2H2O labeling. […] The fraction of TG which is newly synthesized is then calculated as: Fractional synthesis (f)=EM1/A1^∞. […]

Molecule: NC(=O)NO [HU, hydroxyurea]
- tumor cell proliferation relative to saline control [1]: caused reductions; also recorded: decreased

Molecule: Nc1ccn([C@@H]2O[C@H](CO)[C@@H](O)C2(F)F)c(=O)n1 [Gem, gemcitabine]
- bone marrow cell proliferation [2]: inhibits
- bone marrow cell proliferation ([2]; listed as gemcitabine): inhibited in tumor and bone marrow cells in a dose-response manner
- tumor cell proliferation [3]: inhibits
- tumor cell proliferation ([3]; listed as gemcitabine): inhibited in tumor and bone marrow cells in a dose-response manner
- colon cell (colonocyte) proliferation [4]: relatively little effect
- colon cell (colonocyte) proliferation ([4]; listed as gemcitabine): little inhibition
- colonocyte proliferation at the lower experimental doses ([4]; lower experimental doses): may have a stimulatory effect
- tumor cell proliferation relative to saline control [1]: caused reductions; also recorded: decreased

Molecule: ClC(Cl)(Cl)Cl [CCl4, carbon tetrachloride]
- new liver cells present ([5]; after 4 weeks of repeated CCl4 dosing): ~100%
- total liver cell proliferation relative to vehicle control ([5]; mice injected 2x weekly, both doses (1.0 ml/kg and 0.25 mL/kg), up to 4 weeks): significantly increased; also recorded: significant cell proliferation occurred at both doses
- liver collagen synthesis relative to vehicle control, high dose ([6]; high dose of CCl4 (1.0 ml/kg 2x weekly)): significant collagen synthesis occurred only at the highest dose; also recorded: increased
- liver collagen synthesis relative to vehicle control, low dose ([6]; low dose of CCl4 (0.25 mL/kg 2x weekly)): no effect

Molecule: [2H]O[2H] [^2H2O]
- near-plateau body 2H2O enrichment [7]: 1.5-2.0%
- time to near-plateau body 2H2O enrichment [7]: 5 to 7 days
- impact on food intake or body weight [8]: no impact
- steady state body 2H2O enrichment [9]: approximately 3.0%
- tolerability of 2H2O protocol [10]: well-tolerated

B1: leptin: murine leptin (Amgen) infused subcutaneously by osmotic pump (protein, UniProt P41160 22-167, looked up)
Leptin: VPIQKVQDDTKTLIKTIVTRINDISHTQSVSAKQRVTGLDFIPGLHPILSLSKMDQTLAVYQQVLTSLPSQNVLQIANDLENLRDLLHLLAFSKSCSLPQTSGLQKPESLDGVLEASLYSTEVVALSRLQGSLQDILQQLDVSPEC
- TG retained (body fat balance) ([11]; leptin treated ob/ob mice): body fat was lost
- effect on de novo lipogenesis, adipogenesis and triglyceride synthesis in adipose tissue ([11]; ob/ob mice, murine leptin 2 μg/day s.c. osmotic pump, 21 days 2H2O): influenced all three pathways similarly
